In article PMC3818835, “What Goes around Comes around-A Comparative Study of the Influence of Chemical Modifications on the Antimicrobial Properties of Small Cyclic Peptides” (Pharmaceuticals, 2013):
Converted amounts (≈) assume the structure as drawn. Numbered stars: 1 amine (or outer) side, 2 acyl side, 3 side chain; on linkers, the order of the positions; unused ones are H or OH. Square brackets hold non-standard residues; d marks the D form. Peptide text beside a SMILES is read from it. * marks the point of attachment. 6FAM = O=C1OC2(c3ccc(O)cc3Oc3cc(O)ccc32)c2cc(C(=O)*)ccc21; X1 = COc1ccc2c(CC(N[*:1])C(=O)[*:2])cc(=O)oc2c1; NBD = O=[N+]([O-])c1ccc(*)c2nonc12; X2 = O=c1cc(C*)c2cc(Br)c(O)cc2o1; Dap = NC[C@H](N)C(=O)O

Tests used:
[1] = Hydrophobicity: retention time tR by reversed phase HPLC; type: physicochemical; settings: chromatographic, RP-HPLC ProntoSil 300-5-C18-H (250 × 4.6 mm, 5 µm); peptide 1 mg/mL in phase A (0.1% TFA in water); B 0.1% TFA in 80% acetonitrile; linear gradient 5%–95% B over 40 min at 22 °C; used as a measure of hydrophobicity
Experimental: The retention time tR of the cyclic hexapeptides was determined by HPLC on a Jasco LC-2000Plus using a ProntoSil 300-5-C18-H column (250 × 4.6 mm, 5 µm) (Bischoff Chromatography). Peptide concentration was 1 mg/mL in mobile phase A (0.1% TFA in deionized water), mobile phase B consisted of 0.1% TFA in 80% acetonitrile in deionized water. For chromatographic analyses a linear gradient of 5%–95% phase B over 40 min at 22 °C was applied.
To investigate the influence of fluorescent label modification and amino acid substitution on the hydrophobicity/amphipathicity of the cyclic hexapeptide derivatives, we determined the retention time tR by reversed phase HPLC (Figure 2). The method monitors the retention of compounds by the hydrophobic HPLC stationary phase. Differences in tR reflect differences in the effective hydrophobicity of the molecule which is related to the intrinsic hydrophobicity of the individual residues and their ability to form hydrophobic domains for interaction with the HPLC matrix. At the same time, hydrophilic residues will locate at the opposite side of the molecule. Reduction in the size or positioning of cationic residues next to the hydrophobic molecular surface area would reduce amphipathicity. tR-measurements have successfully been applied to characterize amphipathic helices, β-structured peptides and different sets of our small cyclic R-, W-rich peptides.

human erythrocytes = type: cell-based; settings: pH 7.4
Experimental: The lytic effect of selected peptides upon human erythrocytes was determined as described before. Briefly, cells were washed thoroughly in Tris buffer (10 mM Tris, 150 mM NaCl, pH 7.4). Suspensions with 2.5 × 10^8 cells/mL were incubated with peptides at a final concentration of 100 µM for 30 min at 37 °C. After centrifugation, 0.6% NH4OH was added to an aliquot of the supernatant and hemoglobin absorption (A) was measured at 540 nm (Jasco V-550). Whole cell suspensions exposed to NH4OH were used as positive control (A100%) and preparations without peptide served as negative control (A0%), respectively. Data were collected in three independent experiments.

E. coli DH5α [2] = type: cell-based; settings: 18 h
Experimental: (§1) The minimal inhibitory concentration (MIC) of the cyclic hexapeptides was tested against Gram-negative E. coli DH5α and Gram-positive B. subtilis DSM 347 using a microdilution technique in 96 well microtiter plates as described previously. Briefly, cells from an overnight culture were inoculated 1:100 in LB medium, grown to mid log phase (OD600 0.4 ± 0.1) and adjusted to 5 × 10^5 cells/well. Final peptide concentrations ranged from 0.05 µM to 100 µM (2-fold dilutions) and were tested in triplicates in at least three independent experiments. The MIC was determined after 18 h of incubation at 37 °C, 180 rpm being the lowest peptide concentration at which no visible bacterial growth can be detected photometrically (A600, Safire Microplate Reader, Tecan, Männedorf, Germany).

B. subtilis DSM 347 [3] = type: cell-based; settings: DSM 347, 18 h
Experimental: as §1

E. coli DH5α [4] = assay: Propidium iodide influx (membrane permeabilisation), flow cytometry; type: cell-based; settings: FACS, PI 10 µg/mL, peptide at respective MIC, LB, 5 × 10^5 cells/mL, 0-90 min at 37 °C
Experimental: (§2) Membrane permeabilisation was determined by fluorescence activated cell sorting (FACS) on a FACSCalibur (Becton Dickinson) equipped with a 488 nm argon laser. Propidium iodide (PI, 10 µg/mL) and peptides at a final concentration corresponding to the respective MIC were dissolved in LB. Cells were grown to mid log phase (OD600 0.4 ± 0.1) and added to the solution just before the measurement at a concentration of 5 × 10^5 cells/mL. Cells were sorted on the basis of PI fluorescence which increases upon intercalation with DNA. This can only be observed in the case of disturbed membrane integrity as PI cannot translocate across intact lipid bilayers. Cell fluorescence was measured after incubation time points of 0, 5, 10, 15, 20, 30, 60 and 90 min at 37 °C, 180 rpm. A minimum of 20,000 cells was recorded for each preparation. CellQuest^TM Pro software (Becton Dickinson) was used for data acquisition and results were analyzed with FCS Express V3 (De Novo Software, Los Angeles, CA, USA).

B. subtilis DSM 347 [5] = assay: as above; type: cell-based; settings: FACS, PI 10 µg/mL, peptide at respective MIC, LB, 5 × 10^5 cells/mL, 0-90 min at 37 °C
Experimental: as §2

E. coli DH5α [6] = settings: 5 µM, PI influx; cited from earlier work
Experimental: (§3) Figure 4 Bacterial membrane permeabilisation determined with flow cytometry using propidium iodide (PI). PI influx after incubation with cWFW, fluorescent-labeled and K-substituted cyclic hexapeptides was tested into B. subtilis DSM 347 (A,C) and E. coli DH5α (B,D) at respective MICs. […] Preparations without peptide were used as negative co ...

B. subtilis DSM 347 [7] = settings: 5 µM, PI influx; cited from earlier work
Experimental: as §3

Molecule | Retention Time tR [1] [min] | Hemolysis at 100 µM (human erythrocytes) [%] | MIC E. coli DH5α (E. coli DH5α [2]) [µM] | MIC B. subtilis DSM 347 (B. subtilis DSM 347 [3]) [µM] | PI influx / membrane permeabilisation, E. coli (E. coli DH5α [4]) | PI influx / membrane permeabilisation, B. subtilis (B. subtilis DSM 347 [5]) | Membrane permeabilising potential, Gram-negative cells (positive control) (E. coli DH5α [6]) | Membrane permeabilising potential, Gram-positive cells (positive control) (B. subtilis DSM 347 [7])
N=C(N)NCCC[C@@H]1NC(=O)[C@H](CCCNC(=N)N)NC(=O)[C@H](Cc2c[nH]c3ccccc23)NC(=O)[C@H](CNc2ccc([N+](=O)[O-])c3nonc23)NC(=O)[C@H](Cc2c[nH]c3ccccc23)NC(=O)[C@H](CCCNC(=N)N)NC1=O [cW[NBD]W] (cyclo(RRRW[Dap](NBD)W)) | 17.90 | 76 | 50 (≈ 54.5 µg/mL) | 25 (≈ 27.3 µg/mL) | pronounced membrane disruption |  |  | 
N=C(N)NCCC[C@@H]1NC(=O)[C@H](CCCCN)NC(=O)[C@H](Cc2c[nH]c3ccccc23)NC(=O)[C@H](Cc2ccccc2)NC(=O)[C@H](Cc2c[nH]c3ccccc23)NC(=O)[C@H](CCCCN)NC1=O [cKRK] (cyclo(KRKWFW)) | 17.27 | 2 | 12 (≈ 11.2 µg/mL) | 25 (≈ 23.3 µg/mL) |  |  |  | 
N=C(N)NCCC[C@@H]1NC(=O)[C@H](CCCNC(=N)N)NC(=O)[C@H](Cc2c[nH]c3ccccc23)NC(=O)[C@H](CSCc2cc(=O)oc3cc(O)c(Br)cc23)NC(=O)[C@H](Cc2c[nH]c3ccccc23)NC(=O)[C@H](CCCNC(=N)N)NC1=O [cW[S-Cu]W] (cyclo(RRRWC(X2)W)) | 18.91 | 76 | 25 (≈ 29.9 µg/mL) | 6 (≈ 7.18 µg/mL) | pronounced membrane disruption | slightly higher |  | 
polymyxin B |  |  |  |  |  |  | high membrane permeabilising potential | 
COc1ccc2c(CC3NC(=O)[C@H](Cc4c[nH]c5ccccc45)NC(=O)[C@H](CCCCN)NC(=O)[C@H](CCCNC(=N)N)NC(=O)[C@H](CCCCN)NC(=O)[C@H](Cc4c[nH]c5ccccc45)NC3=O)cc(=O)oc2c1 (stereo partly shown) [cR2[Cu]] (cyclo(KRKW[X1]W)) | 17.20 | 4 | 50 (≈ 51.5 µg/mL) | 6 (≈ 6.18 µg/mL) | pronounced membrane disruption |  |  | 
N=C(N)NCCC[C@@H]1NC(=O)[C@H](CCCCN)NC(=O)[C@H](Cc2c[nH]c3ccccc23)NC(=O)[C@H](CNc2ccc([N+](=O)[O-])c3nonc23)NC(=O)[C@H](Cc2c[nH]c3ccccc23)NC(=O)[C@H](CCCCN)NC1=O [cR2[NBD]] (cyclo(KRKW[Dap](NBD)W)) | 17.47 | 26 | 50 (≈ 51.7 µg/mL) | 12 (≈ 12.4 µg/mL) | No E. coli membrane permeabilisation could be detected |  |  | 
N=C(N)NCCC[C@@H]1NC(=O)[C@H](CCCCN)NC(=O)[C@H](CCCCN)NC(=O)[C@H](Cc2c[nH]c3ccccc23)NC(=O)[C@H](Cc2ccccc2)NC(=O)[C@H](Cc2c[nH]c3ccccc23)NC1=O [cKKR] (cyclo(KKRWFW)) | 17.86 | 3 | 100 (≈ 93.2 µg/mL) | 25 (≈ 23.3 µg/mL) |  |  |  | 
COc1ccc2c(CC3NC(=O)[C@H](Cc4c[nH]c5ccccc45)NC(=O)[C@H](CCCNC(=N)N)NC(=O)[C@H](CCCNC(=N)N)NC(=O)[C@H](CCCNC(=N)N)NC(=O)[C@H](Cc4c[nH]c5ccccc45)NC3=O)cc(=O)oc2c1 (stereo partly shown) [cW[Cu]W] (cyclo(RRRW[X1]W)) | 18.40 | 23 | 25 (≈ 27.2 µg/mL) | 6 (≈ 6.52 µg/mL) | pronounced membrane disruption | slightly higher |  | 
NCCCC[C@@H]1NC(=O)[C@H](CCCCN)NC(=O)[C@H](Cc2c[nH]c3ccccc23)NC(=O)[C@H](Cc2ccccc2)NC(=O)[C@H](Cc2c[nH]c3ccccc23)NC(=O)[C@H](CCCCN)NC1=O [cKKK] (cyclo(KKKWFW)) | 17.70 | 8 | 100 (≈ 90.4 µg/mL) | 50 (≈ 45.2 µg/mL) |  |  |  | 
N=C(N)NCCC[C@@H]1NC(=O)[C@H](Cc2c[nH]c3ccccc23)NC(=O)[C@H](Cc2ccccc2)NC(=O)[C@H](Cc2c[nH]c3ccccc23)NC(=O)[C@H](CCCCN)NC(=O)[C@H](CCCCN)NC1=O [cRKK] (cyclo(RKKWFW)) | 18.38 | 56 | 50 (≈ 46.6 µg/mL) | 25 (≈ 23.3 µg/mL) |  |  |  | 
N=C(N)NCCC[C@@H]1NC(=O)[C@H](CCCNC(=N)N)NC(=O)[C@H](CCCCNC(=O)c2ccc3c(c2)C2(OC3=O)c3ccc(O)cc3Oc3cc(O)ccc32)NC(=O)[C@H](Cc2c[nH]c3ccccc23)NC(=O)[C@H](Cc2c[nH]c3ccccc23)NC(=O)[C@H](CCCNC(=N)N)NC1=O [cW2[Fluos]] (cyclo(RRRWWK(6FAM))) | 19.28 | 9 | >100 | >100 |  |  |  | 
N=C(N)NCCC[C@@H]1NC(=O)[C@H](CCCCN)NC(=O)[C@H](Cc2c[nH]c3ccccc23)NC(=O)[C@H](CSCc2cc(=O)oc3cc(O)c(Br)cc23)NC(=O)[C@H](Cc2c[nH]c3ccccc23)NC(=O)[C@H](CCCCN)NC1=O [cR2[S-Cu]] (cyclo(KRKWC(X2)W)) | 17.49 | 5 | 50 (≈ 57.1 µg/mL) | 25 (≈ 28.5 µg/mL) |  |  |  | 
N=C(N)NCCC[C@@H]1NC(=O)[C@H](CCCCN)NC(=O)[C@H](CCCNC(=N)N)NC(=O)[C@H](Cc2c[nH]c3ccccc23)NC(=O)[C@H](Cc2ccccc2)NC(=O)[C@H](Cc2c[nH]c3ccccc23)NC1=O [cRKR] (cyclo(RKRWFW)) | 18.60 | 4 | 50 (≈ 48 µg/mL) | 12 (≈ 11.5 µg/mL) |  |  |  | 
KLALKLALKALKAALKLA-NH2 [KLA-1, helical model peptide …-NH2, positive control in Gram-positive cells] |  |  |  |  |  |  |  | high membrane permeabilising potential
N=C(N)NCCC[C@@H]1NC(=O)[C@H](CCCCNC(=O)c2ccc3c(c2)C2(OC3=O)c3ccc(O)cc3Oc3cc(O)ccc32)NC(=O)[C@H](Cc2c[nH]c3ccccc23)NC(=O)[C@H](Cc2c[nH]c3ccccc23)NC(=O)[C@H](Cc2c[nH]c3ccccc23)NC(=O)[C@H](CCCNC(=N)N)NC1=O [cW3[Fluos]] (cyclo(RRWWWK(6FAM))) | 22.08 | 2 | >100 | >100 |  |  |  | 
